Data taken from patent US12357631B2 (priority 2018, dated 2025).

Key:
Assay in all cases: biochemical
Format in all cases: binding
[1] = biological target: PB2 CDlp7028 H3N2 (Influenza A virus, UniProt P31345)
[2] = biological target: PB2 (Influenza A virus, UniProt P03428)
[3] = biological target: PB2 CDlp7007 H3N2 (Influenza A virus, UniProt P31345)
[4] = biological target: PB2 CDlp7026 H1N1 (Influenza A virus, UniProt P03428)
Sequence of PB2 CDlp7026 H1N1 (P03428 whole entry, looked up): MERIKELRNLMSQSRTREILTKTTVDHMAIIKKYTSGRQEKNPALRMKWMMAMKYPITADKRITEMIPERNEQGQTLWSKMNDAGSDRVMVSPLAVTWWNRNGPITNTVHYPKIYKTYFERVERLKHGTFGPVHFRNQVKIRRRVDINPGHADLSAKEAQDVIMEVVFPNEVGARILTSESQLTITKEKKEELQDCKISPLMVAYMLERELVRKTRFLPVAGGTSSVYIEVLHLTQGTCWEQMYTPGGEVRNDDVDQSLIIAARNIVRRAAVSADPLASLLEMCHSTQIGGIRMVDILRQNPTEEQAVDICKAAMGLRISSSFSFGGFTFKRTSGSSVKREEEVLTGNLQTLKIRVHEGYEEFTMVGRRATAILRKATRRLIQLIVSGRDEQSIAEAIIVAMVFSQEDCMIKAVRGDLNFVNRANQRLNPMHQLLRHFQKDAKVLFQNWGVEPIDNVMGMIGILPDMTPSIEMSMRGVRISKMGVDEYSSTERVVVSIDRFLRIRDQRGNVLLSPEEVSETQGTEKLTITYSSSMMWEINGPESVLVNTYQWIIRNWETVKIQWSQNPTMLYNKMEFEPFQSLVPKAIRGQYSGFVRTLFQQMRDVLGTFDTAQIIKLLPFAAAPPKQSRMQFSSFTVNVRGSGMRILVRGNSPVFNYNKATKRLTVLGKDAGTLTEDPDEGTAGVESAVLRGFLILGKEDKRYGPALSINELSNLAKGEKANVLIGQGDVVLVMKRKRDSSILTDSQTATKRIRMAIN

Sequence of PB2 CDlp7007 H3N2 (P31345 whole entry, looked up): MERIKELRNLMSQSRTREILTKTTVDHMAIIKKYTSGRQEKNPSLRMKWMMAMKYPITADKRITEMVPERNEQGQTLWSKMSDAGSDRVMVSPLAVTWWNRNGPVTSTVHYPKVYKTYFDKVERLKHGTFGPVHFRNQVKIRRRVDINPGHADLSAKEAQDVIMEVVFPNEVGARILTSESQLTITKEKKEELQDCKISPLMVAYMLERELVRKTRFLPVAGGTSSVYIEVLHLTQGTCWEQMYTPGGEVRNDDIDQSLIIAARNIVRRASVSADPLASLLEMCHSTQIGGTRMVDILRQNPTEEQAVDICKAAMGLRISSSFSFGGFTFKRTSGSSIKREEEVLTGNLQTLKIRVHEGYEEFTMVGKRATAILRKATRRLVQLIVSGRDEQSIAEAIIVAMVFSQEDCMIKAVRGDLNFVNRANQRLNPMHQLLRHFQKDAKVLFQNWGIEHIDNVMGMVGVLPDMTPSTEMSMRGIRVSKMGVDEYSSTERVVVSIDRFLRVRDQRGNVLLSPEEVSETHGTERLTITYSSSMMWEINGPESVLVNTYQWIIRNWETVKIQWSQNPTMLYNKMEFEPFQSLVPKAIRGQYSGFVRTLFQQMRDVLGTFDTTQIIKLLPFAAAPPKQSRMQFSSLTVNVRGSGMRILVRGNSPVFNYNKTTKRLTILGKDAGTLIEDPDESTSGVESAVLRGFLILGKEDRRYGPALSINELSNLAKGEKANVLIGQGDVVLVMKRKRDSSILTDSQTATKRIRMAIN
Sequence of PB2 CDlp7028 H3N2 (P31345 whole entry, looked up): as above
Sequence of PB2 (P03428 whole entry, looked up): as the sequence (P03428 whole entry, looked up) above

Work on `CCNC(=O)OCc1ccnc(C(=O)N[C@@H]2CCC[C@H](Nc3nc(-c4c[nH]c5ncc(F)cc45)ncc3F)C2)c1` [Compound A70] yielded an IC50 [1] of less than 5 µM, an EC50 [2] of less than 5 µM and an IC50 [3] of 5 to 25 µM. It also gave an IC50 [4] of 5 to 25 µM.
